# From PubChem BioAssay AID256 (DTP/NCI, 2004)
# Several values for one entry are separate records, joined by “and”; a condition that tells them apart may be missing. Equal values may be shown once. Inconclusive results and toxic doses are left out.
# Test system: CD2F1 mice, L1210 leukemia ip, survival T/C
# Assay: NCI In Vivo Anticancer Drug Screen. Data for tumor model L1210 Leukemia (intraperitoneal) in CD2F1 (CDF1) mice
# Conditions: higher = longer survival
# Method in brief: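 Antitumor effect is scored in animals hosting a serially transplanted tumor. Values compare compound-dosed animals against vehicle-only controls as a simple quotient.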
# [1] = endpoint: mean survival time, dose: 25.0 mg/kg/injection, schedule: Q01DX009 (ip), vehicle: saline with Tween-80
# [2] = endpoint: mean survival time, dose: 50.0 mg/kg/injection, schedule: Q01DX009 (ip), vehicle: saline with Tween-80
# [3] = endpoint: mean survival time, dose: 100.0 mg/kg/injection, schedule: Q01DX009 (ip), vehicle: saline with Tween-80
structure (smiles),measurement,setting,value
CC(CN=[N+]=[N-])OC(=O)C(F)(F)F (stereo not given),T/C,"endpoint: mean survival time, dose: 37.5 mg/kg/injection, schedule: Q01DX009 (ip), vehicle: saline",94 % of control
same,T/C,"endpoint: mean survival time, dose: 75.0 mg/kg/injection, schedule: Q01DX001 (ip), vehicle: saline",98 % of control
same,T/C,"endpoint: mean survival time, dose: 75.0 mg/kg/injection, schedule: Q01DX009 (ip), vehicle: saline",94 % of control
same,T/C,"endpoint: mean survival time, dose: 150.0 mg/kg/injection, schedule: Q01DX001 (ip), vehicle: saline",101 % of control
Cc1cccc(Cl)c1OCC1CO1 (stereo not given),T/C,"endpoint: mean survival time, dose: 100.0 mg/kg/injection, schedule: Q01DX001 (ip), vehicle: saline",110 % of control
same,T/C,"endpoint: mean survival time, dose: 200.0 mg/kg/injection, schedule: Q01DX001 (ip), vehicle: saline",110 % of control
same,T/C,"endpoint: mean survival time, dose: 400.0 mg/kg/injection, schedule: Q01DX001 (ip), vehicle: saline",110 % of control
NC(N)=N/N=C\c1ccc(/C=N/N=C(N)N)cc1,T/C,"endpoint: mean survival time, dose: 3.0 mg/kg/injection, schedule: Q01DX010 (ip), vehicle: saline",102 % of control
same,T/C,"endpoint: mean survival time, dose: 5.0 mg/kg/injection, schedule: Q01DX010 (ip), vehicle: saline",106 % of control
same,T/C,"endpoint: mean survival time, dose: 8.0 mg/kg/injection, schedule: Q01DX010 (ip), vehicle: saline",110 % of control
same,T/C,"endpoint: mean survival time, dose: 12.0 mg/kg/injection, schedule: Q01DX010 (ip), vehicle: saline",112 % of control
O=c1oc(-c2ccccc2)nc2cc(Cl)ccc12,T/C,[1],105 % of control
same,T/C,[2],100 % of control
same,T/C,[3],105 % of control
O=S(=O)(CCl)OCCCl,T/C,"endpoint: mean survival time, dose: 6.25 mg/kg/injection, schedule: Q01DX009 (ip), vehicle: saline with Tween-80",101 % of control
same,T/C,"endpoint: mean survival time, dose: 12.5 mg/kg/injection, schedule: Q01DX009 (ip), vehicle: saline with Tween-80",115 % of control and 117 % of control
same,T/C,[1],120 % of control
same,T/C,[2],193 % of control
same,T/C,[3],86 % of control
same,T/C,"endpoint: median survival time, dose: 6.25 mg/kg/injection, schedule: Q01DX009 (ip), vehicle: saline with Tween-80",101 % of control and 108 % of control
same,T/C,"endpoint: median survival time, dose: 12.5 mg/kg/injection, schedule: Q01DX009 (ip), vehicle: saline with Tween-80",100 % of control and 104 % of control
same,T/C,"endpoint: median survival time, dose: 50.0 mg/kg/injection, schedule: Q01DX009 (ip), vehicle: saline with Tween-80",120 % of control
same,T/C,"endpoint: median survival time, dose: 100.0 mg/kg/injection, schedule: Q01DX009 (ip), vehicle: saline with Tween-80",173 % of control
CC(CCOP(=O)(N(CCCl)CCCl)N1CC1)OCc1ccccc1 (stereo not given),T/C,"endpoint: mean survival time, dose: 22.0 mg/kg/injection, schedule: Q01DX001 (ip), vehicle: other",108 % of control
same,T/C,"endpoint: mean survival time, dose: 33.0 mg/kg/injection, schedule: Q01DX001 (ip), vehicle: other",111 % of control
same,T/C,"endpoint: mean survival time, dose: 50.0 mg/kg/injection, schedule: Q01DX001 (ip), vehicle: other",153 % of control
CCCCCCCCOCCOCCOCCOCCOCCCCCCCC,T/C,"endpoint: mean survival time, dose: 100.0 mg/kg/injection, schedule: Q04DX002 (ip), vehicle: saline with Tween-80",102 % of control
same,T/C,"endpoint: mean survival time, dose: 200.0 mg/kg/injection, schedule: Q04DX002 (ip), vehicle: saline with Tween-80",98 % of control
same,T/C,"endpoint: mean survival time, dose: 400.0 mg/kg/injection, schedule: Q04DX002 (ip), vehicle: saline with Tween-80",102 % of control
COc1ccc(C(=O)O)c([N+](=O)[O-])c1,T/C,"endpoint: mean survival time, dose: 100.0 mg/kg/injection, schedule: Q04DX003 (ip), vehicle: saline with Tween-80",98 % of control
same,T/C,"endpoint: mean survival time, dose: 200.0 mg/kg/injection, schedule: Q04DX003 (ip), vehicle: saline with Tween-80",98 % of control
same,T/C,"endpoint: mean survival time, dose: 400.0 mg/kg/injection, schedule: Q04DX003 (ip), vehicle: saline with Tween-80",98 % of control
COc1ccccc1NC(=O)c1ccccc1,T/C,[3],98 % of control
same,T/C,"endpoint: mean survival time, dose: 200.0 mg/kg/injection, schedule: Q01DX009 (ip), vehicle: saline with Tween-80",114 % of control
same,T/C,"endpoint: mean survival time, dose: 400.0 mg/kg/injection, schedule: Q01DX009 (ip), vehicle: saline with Tween-80",104 % of control
c1cncc(C2OCCO2)c1,T/C,"endpoint: mean survival time, dose: 100.0 mg/kg/injection, schedule: Q01DX009 (ip), vehicle: saline",105 % of control
same,T/C,"endpoint: mean survival time, dose: 200.0 mg/kg/injection, schedule: Q01DX009 (ip), vehicle: saline",100 % of control
same,T/C,"endpoint: mean survival time, dose: 400.0 mg/kg/injection, schedule: Q01DX009 (ip), vehicle: saline",100 % of control
C1CCC(C2CCCC[N-]2)[N-]C1.C1CCC(C2CCCC[N-]2)[N-]C1.O=C(O)C(=O)O.[Ru+4] (stereo not given),T/C,"endpoint: mean survival time, dose: 3.13 mg/kg/injection, schedule: Q04DX003 (ip), vehicle: water",101 % of control
same,T/C,"endpoint: mean survival time, dose: 6.25 mg/kg/injection, schedule: Q04DX003 (ip), vehicle: water",93 % of control
same,T/C,"endpoint: mean survival time, dose: 12.5 mg/kg/injection, schedule: Q04DX003 (ip), vehicle: water",96 % of control
same,T/C,"endpoint: mean survival time, dose: 25.0 mg/kg/injection, schedule: Q04DX003 (ip), vehicle: water",93 % of control
same,T/C,"endpoint: mean survival time, dose: 50.0 mg/kg/injection, schedule: Q04DX003 (ip), vehicle: water",93 % of control
same,T/C,"endpoint: mean survival time, dose: 100.0 mg/kg/injection, schedule: Q04DX003 (ip), vehicle: water",95 % of control
same,T/C,"endpoint: mean survival time, dose: 200.0 mg/kg/injection, schedule: Q04DX003 (ip), vehicle: water",91 % of control
